Earlier results on one compound are cited in paper PMC11940238, “Ru(II) Complexes with 3,4-Dimethylphenylhydrazine: Exploring In Vitro Anticancer Activity and Protein Affinities” (Biomolecules, 2025).

For the data set, the system named is Bovine Serum Albumin (BSA). To be noted: cited from earlier work.

In the case of `Cc1ccc(C(C)C)cc1.O=[N+]([O-])c1cccc([NH+]2[NH2+][Ru-]2[Cl])c1` (stereo not shown) [[RuCl(η^6-p-cymene)(3-DNPH)], chlorido(η^6-p-cymene)(3-nitrophenylhydrazine-k^2N,N’)ruthenium(II)], the “sign of the change in enthalpy and entropy of binding” value is given as “positive values”.
